From PMC8733726, “Dioctanoyl Ultrashort Tetrabasic β-Peptides Sensitize Multidrug-Resistant Gram-Negative Bacteria to Novobiocin and Rifampicin” (Frontiers in Microbiology, 2021)
≈ marks a conversion by molar mass, not a printed value. Read-outs that look alike come from different tables or passages of the source.

Columns and labels:
[1] = tested on: MDR P. aeruginosa clinical isolates; experiment: Resistance phenotype (MICs of antibiotics) of MDR clinical isolates; format: cell-based, Pseudomonas aeruginosa; conditions: Pseudomonas aeruginosa, read-out: MIC
[2] = tested on: MDR A. baumannii clinical isolates; experiment: as above; format: cell-based, Acinetobacter baumannii; conditions: Acinetobacter baumannii, read-out: MIC
[3] = tested on: MDR E. coli clinical isolates; experiment: as above; format: cell-based, Escherichia coli; conditions: Escherichia coli, read-out: MIC
[4] = tested on: MDR E. cloacae clinical isolates; experiment: as above; format: cell-based, Enterobacter cloacae; conditions: Enterobacter cloacae, read-out: MIC
[5] = tested on: MDR K. pneumoniae clinical isolates; experiment: as above; format: cell-based, Klebsiella pneumoniae; conditions: Klebsiella pneumoniae, read-out: MIC
[6] = tested on: wild-type E. coli ATCC 25922; experiment: microbe, parasite or virus in culture; format: cell-based, Escherichia coli; conditions: ATCC 25922
Method: The adjuvant activities of dUSTBβPs were evaluated using checkerboard assay as previously described ([Berry et al., 2019]). Overnight-grown bacterial culture diluted in saline to 0.5 McFarland turbidity was successively diluted 1:50 in MHB to achieve a final concentration of 5 × 10^5 CFU/mL for inoculation. The antibiotic and adjuvant were serially diluted 2-fold along the x-axis and y-axis, respectively, resulting in varying concentrations of both agents in each well. Subsequently, the 96-well plate was incubated with equal volumes of bacterial inoculum at 37°C for 18 h. Confirmation of turbidity was done using an EMax Plus microplate reader (Molecular Devices, United States) at a wavelength of 590 nm. Wells comprising MHB alone or in the presence of bacterial cells were used as negative or positive controls, respectively. Fractional inhibitory concentration index (FICI) is determined by adding the FICs of both antibiotic and adjuvant. The FIC of the antibiotic is calculated by dividing the MIC of the antibiotic in the presence of the adjuvant by the MIC of the antibiotic alone. Similarly, the FIC of the adjuvant is calculated by dividing the MIC of the adjuvant in the presence of the antibiotic by the MIC of the adjuvant alone. FICI ≤ 0.5, 0.5 < x ≤ 4, and >4 were deemed synergistic, additive, and antagonistic, respectively ([Meletiadis et al., 2010]).

Row | MIC ([1]; 259-96196) | MIC ([1]; 262-101856) | MIC ([1]; 264-104354) | MIC [1]; 91433 | MIC [1]; 114228 | MIC ([2]; AB027) | MIC ([2]; AB031) | MIC ([2]; LAC-4) | MIC ([3]; 94393 (mcr-1 +)) | MIC ([3]; 94474 (mcr-1 +)) | MIC [3]; 107115 | MIC [4]; 117029 | MIC [5]; 113250 | MIC [5]; 113254 | MIC [5]; 116381 | MIC [2]; 92247 | MIC [4]; 118564 | MIC [4]; 121187 | MICcombo ([6]; antibiotic with dUSTBβP 3 at 8 μg/mL) | MIC ([6]; Escherichia coli, ATCC25922, 18 h, antibiotic alone (Supplementary Table 7), read-out: MICantibiotic) | Structure (SMILES)
1 | > 1020 µg/mL | 16 µg/mL (≈ 38 µM) | 16 µg/mL (≈ 38 µM) | 16 µg/mL (≈ 38 µM) | 8 µg/mL (≈ 19 µM) |  |  |  |  |  |  |  |  |  |  |  |  |  |  |  | C[C@@H](O)[C@H]1C(=O)N2C(C(=O)O)=C(S[C@@H]3CN[C@H](CNS(N)(=O)=O)C3)[C@H](C)[C@H]12 [DOR, doripenem]
2 | 32 µg/mL (≈ 107 µM) | 32 µg/mL (≈ 107 µM) | 32 µg/mL (≈ 107 µM) | 32 µg/mL (≈ 107 µM) |  | 32 µg/mL (≈ 107 µM) | 0.25 µg/mL (≈ 0.835 µM) | < 1 µg/mL | 0.25 µg/mL (≈ 0.835 µM) | 0.25 µg/mL (≈ 0.835 µM) | 8 µg/mL (≈ 26.7 µM) | 0.25 µg/mL (≈ 0.835 µM) | 0.25 µg/mL (≈ 0.835 µM) | 0.12 µg/mL (≈ 0.401 µM) | 0.5 µg/mL (≈ 1.67 µM) |  |  |  |  |  | C[C@@H](O)[C@H]1C(=O)N2C(C(=O)O)=C(SCCN=CN)C[C@H]12 [IMI, imipenem]
3 | > 64 µg/mL | > 64 µg/mL | 8 µg/mL (≈ 13.7 µM) | > 32 µg/mL |  | > 64 µg/mL | 2 µg/mL (≈ 3.42 µM) | 4 µg/mL (≈ 6.83 µM) | 2 µg/mL (≈ 3.42 µM) | 2 µg/mL (≈ 3.42 µM) | 2 µg/mL (≈ 3.42 µM) | 2 µg/mL (≈ 3.42 µM) | ≤ 1 µg/mL | ≤ 1 µg/mL | ≤ 1 µg/mL | < 1 µg/mL | 2 µg/mL (≈ 3.42 µM) | 1 µg/mL (≈ 1.71 µM) |  |  | NCC[C@H](O)C(=O)N[C@@H]1C[C@H](N)[C@@H](O[C@H]2O[C@H](CN)[C@@H](O)[C@H](O)[C@H]2O)[C@H](O)[C@H]1O[C@H]1O[C@H](CO)[C@@H](O)[C@H](N)[C@H]1O [AMK, amikacin]
4 | 1020 µg/mL (≈ 2670 µM) | 32 µg/mL (≈ 83.4 µM) | 64 µg/mL (≈ 167 µM) | 16 µg/mL (≈ 41.7 µM) | 8 µg/mL (≈ 20.9 µM) | 16 µg/mL (≈ 41.7 µM) | 1 µg/mL (≈ 2.61 µM) | < 1 µg/mL | ≤ 0.03 µg/mL | ≤ 0.03 µg/mL | 32 µg/mL (≈ 83.4 µM) | ≤ 0.03 µg/mL | ≤ 0.03 µg/mL | ≤ 0.03 µg/mL | ≤ 0.03 µg/mL | 4 µg/mL (≈ 10.4 µM) | 0.12 µg/mL (≈ 0.313 µM) | 0.06 µg/mL (≈ 0.156 µM) |  |  | C[C@@H](O)[C@H]1C(=O)N2C(C(=O)O)=C(S[C@@H]3CN[C@H](C(=O)N(C)C)C3)[C@H](C)[C@H]12 [MER, meropenem]
5 | > 64 µg/mL | 64 µg/mL (≈ 115 µM) | > 64 µg/mL | > 64 µg/mL |  |  |  |  |  |  |  |  |  |  |  |  |  |  |  |  | CO/N=C(\C(=O)N[C@@H]1C(=O)N2C(C(=O)O)=C(CSc3nc(=O)c(=O)[nH]n3C)CS[C@H]12)c1csc(N)n1 [CTR, ceftriaxone]
6 | 32 µg/mL (≈ 54.6 µM) | 32 µg/mL (≈ 54.6 µM) | 32 µg/mL (≈ 54.6 µM) | 32 µg/mL (≈ 54.6 µM) |  | 4 µg/mL (≈ 6.83 µM) | 8 µg/mL (≈ 13.7 µM) | < 4 µg/mL | 0.25 µg/mL (≈ 0.427 µM) | 1 µg/mL (≈ 1.71 µM) | 0.25 µg/mL (≈ 0.427 µM) | 0.5 µg/mL (≈ 0.854 µM) |  |  | 1 µg/mL (≈ 1.71 µM) | 0.25 µg/mL (≈ 0.427 µM) |  |  |  |  | CN(C)c1cc(NC(=O)CNC(C)(C)C)c(O)c2c1C[C@H]1C[C@H]3[C@H](N(C)C)C(O)=C(C(N)=O)C(=O)[C@@]3(O)C(O)=C1C2=O [TGC, tigecycline]
7 | > 64 µg/mL | 32 µg/mL (≈ 66.6 µM) | 32 µg/mL (≈ 66.6 µM) | 16 µg/mL (≈ 33.3 µM) |  |  | 4 µg/mL (≈ 8.32 µM) |  | ≤ 0.25 µg/mL | ≤ 0.25 µg/mL | > 64 µg/mL | ≤ 0.25 µg/mL | 1 µg/mL (≈ 2.08 µM) | 1 µg/mL (≈ 2.08 µM) | 16 µg/mL (≈ 33.3 µM) | 4 µg/mL (≈ 8.32 µM) | 0.25 µg/mL (≈ 0.52 µM) | 0.25 µg/mL (≈ 0.52 µM) |  |  | CO/N=C(\C(=O)N[C@@H]1C(=O)N2C(C(=O)[O-])=C(C[N+]3(C)CCCC3)CS[C@H]12)c1csc(N)n1 [CPM, cefepime]
8 |  |  |  |  |  |  |  |  |  |  |  |  |  |  |  |  |  |  | 0.002 µg/mL | 0.008 µg/mL | O=C(O)c1cn(C2CC2)c2cc(N3CCNCC3)c(F)cc2c1=O [Ciprofloxacin]
